Drawing on ChEMBL document CHEMBL1201862, “PubChem BioAssay data set” (2004), this text covers AC50, IC50 and EC50 for 8 compounds.

Counter-ions that a name gives are not always drawn. Active and inactive are the calls of the source.

One assay addresses T1, Cytochrome P450 1A2 (Homo sapiens, UniProt P05177).
T1 sequence (P05177 whole entry): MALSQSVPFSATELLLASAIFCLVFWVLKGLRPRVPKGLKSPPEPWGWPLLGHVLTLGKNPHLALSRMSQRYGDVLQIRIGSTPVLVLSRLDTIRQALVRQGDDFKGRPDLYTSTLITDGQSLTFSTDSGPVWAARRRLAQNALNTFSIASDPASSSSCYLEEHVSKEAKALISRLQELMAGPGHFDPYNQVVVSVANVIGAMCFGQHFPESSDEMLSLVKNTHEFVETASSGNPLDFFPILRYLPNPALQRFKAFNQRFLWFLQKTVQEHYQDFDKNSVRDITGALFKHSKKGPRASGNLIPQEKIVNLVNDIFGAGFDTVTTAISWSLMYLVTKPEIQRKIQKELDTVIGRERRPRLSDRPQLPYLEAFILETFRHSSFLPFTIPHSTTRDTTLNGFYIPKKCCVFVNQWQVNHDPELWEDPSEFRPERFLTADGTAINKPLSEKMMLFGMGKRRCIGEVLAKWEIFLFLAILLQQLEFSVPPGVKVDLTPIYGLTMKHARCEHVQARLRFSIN

The next assay has as its target Cytochrome P450 2D6 (Homo sapiens, UniProt P10635).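 Also: CYP2D6 member of a cytochrome P450 panel assay.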
Assay [1] has as its target Adenosylmethionine-8-amino-7-oxononanoate aminotransferase (Mycobacterium tuberculosis, UniProt P9WQ81). In words: Mycobacterium tuberculosis BioA enzyme inhibitor Measured in Biochemical System Using Plate Reader - 2163-02_Inhibitor_Dose_CherryPick_Activity. It is filed as functional, Mycobacterium tuberculosis UT205.
Assay [2] deals with T2, Long-chain-fatty-acid--AMP ligase FadD28 (Mycobacterium tuberculosis, UniProt P9WQ59).
T2 sequence (P9WQ59 whole entry): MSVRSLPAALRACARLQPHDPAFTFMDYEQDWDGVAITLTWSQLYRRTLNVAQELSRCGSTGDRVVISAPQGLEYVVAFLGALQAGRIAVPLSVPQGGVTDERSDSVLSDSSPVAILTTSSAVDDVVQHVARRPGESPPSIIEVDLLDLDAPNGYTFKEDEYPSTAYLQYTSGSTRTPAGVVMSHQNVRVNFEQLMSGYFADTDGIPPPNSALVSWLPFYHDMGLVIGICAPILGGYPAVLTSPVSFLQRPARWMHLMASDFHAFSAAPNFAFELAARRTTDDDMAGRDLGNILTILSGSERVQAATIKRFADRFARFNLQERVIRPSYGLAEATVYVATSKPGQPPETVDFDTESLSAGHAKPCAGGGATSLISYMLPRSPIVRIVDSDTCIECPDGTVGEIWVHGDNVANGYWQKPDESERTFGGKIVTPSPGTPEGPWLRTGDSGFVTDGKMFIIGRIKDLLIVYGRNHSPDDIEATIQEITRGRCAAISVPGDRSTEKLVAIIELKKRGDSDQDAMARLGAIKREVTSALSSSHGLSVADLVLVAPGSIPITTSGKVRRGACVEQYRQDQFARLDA
In words: Fluorescence polarization aasay to screen for inhibitors that compete for the binding of FadD28 to a bisubstrate Measured in Biochemical System Using Plate Reader - 2147-01_Inhibitor_Dose_CherryPick_Activity. It is filed as functional, Mycobacterium tuberculosis H37Rv. (In fluorescence polarisation assays a small probe gives low polarisation when free and higher when bound to something large.)

Assay [3] in a line: blockers of CRF-binding protein–CRF-R2 complex – cell-based, uHTS hits, 384-well, dose response (AID 651639). The following applies: read-out: IC50_Mean. It is filed as functional, Homo sapiens.
Assay [4] concerns the target T3, Corticotropin-releasing factor receptor 2/Corticotropin-releasing factor-binding protein (Homo sapiens, UniProt P24387+Q13324).
T3 sequence (Q13324 whole entry): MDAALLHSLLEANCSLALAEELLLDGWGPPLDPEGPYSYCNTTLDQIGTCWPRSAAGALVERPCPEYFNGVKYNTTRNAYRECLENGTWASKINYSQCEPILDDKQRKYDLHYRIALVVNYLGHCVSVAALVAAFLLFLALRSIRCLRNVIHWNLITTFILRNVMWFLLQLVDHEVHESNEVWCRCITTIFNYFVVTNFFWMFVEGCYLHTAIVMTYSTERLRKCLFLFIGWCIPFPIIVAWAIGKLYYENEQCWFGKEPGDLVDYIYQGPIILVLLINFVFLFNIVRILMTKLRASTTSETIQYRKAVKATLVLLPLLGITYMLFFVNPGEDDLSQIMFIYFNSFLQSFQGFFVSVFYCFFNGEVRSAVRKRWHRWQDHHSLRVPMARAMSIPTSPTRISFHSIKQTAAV
T3 sequence (P24387 whole entry): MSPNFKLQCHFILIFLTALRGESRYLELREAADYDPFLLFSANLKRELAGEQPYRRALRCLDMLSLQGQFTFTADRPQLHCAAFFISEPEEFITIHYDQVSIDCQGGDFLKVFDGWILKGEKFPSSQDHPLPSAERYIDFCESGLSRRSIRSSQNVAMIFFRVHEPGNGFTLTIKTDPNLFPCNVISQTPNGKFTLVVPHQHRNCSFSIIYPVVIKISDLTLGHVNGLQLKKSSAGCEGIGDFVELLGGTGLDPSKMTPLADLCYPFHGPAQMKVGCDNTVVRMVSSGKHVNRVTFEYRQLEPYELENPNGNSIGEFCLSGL
In words: activators of CRF receptor 2 with binding protein – uHTS hits, confirmation (AID 602473). It is filed as functional. The following applies: read-out: EC50_Mean.

A further assay concerns the target Genome polyprotein (dengue virus type 2, UniProt P29990). In words: flavivirus cap methylation enzyme inhibition – biochemical, confirmation dose response, primary screen (AID 588689). It is filed as functional.
In assay [5] the target is T3, Corticotropin-releasing factor receptor 2/Corticotropin-releasing factor-binding protein. In words: Dose Response confirmation of uHTS hits for small molecule antagonists of the CRF-binding protein and CRF-R2 receptor complex. It is filed as functional. The following applies: read-out: IC50_Mean.
Assay [6] can be described thus: activation of miR-122 Renilla sensor silencing – cell-based, Huh7 psiCHECK-miR122, Renilla luciferase, cherry-picked, dose response (AID 651956).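 Also: huh7 hepatoma cells stably carrying a psiCHECK-2 miR-122 sensor plasmid; renilla luciferase signal reporting endogenous miR-122 activity after 48 h compound exposure.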 It is filed as functional.
Assay [7] deals with T4, Sentrin-specific protease 1 (Homo sapiens, UniProt Q9P0U3).
T4 sequence (Q9P0U3 whole entry): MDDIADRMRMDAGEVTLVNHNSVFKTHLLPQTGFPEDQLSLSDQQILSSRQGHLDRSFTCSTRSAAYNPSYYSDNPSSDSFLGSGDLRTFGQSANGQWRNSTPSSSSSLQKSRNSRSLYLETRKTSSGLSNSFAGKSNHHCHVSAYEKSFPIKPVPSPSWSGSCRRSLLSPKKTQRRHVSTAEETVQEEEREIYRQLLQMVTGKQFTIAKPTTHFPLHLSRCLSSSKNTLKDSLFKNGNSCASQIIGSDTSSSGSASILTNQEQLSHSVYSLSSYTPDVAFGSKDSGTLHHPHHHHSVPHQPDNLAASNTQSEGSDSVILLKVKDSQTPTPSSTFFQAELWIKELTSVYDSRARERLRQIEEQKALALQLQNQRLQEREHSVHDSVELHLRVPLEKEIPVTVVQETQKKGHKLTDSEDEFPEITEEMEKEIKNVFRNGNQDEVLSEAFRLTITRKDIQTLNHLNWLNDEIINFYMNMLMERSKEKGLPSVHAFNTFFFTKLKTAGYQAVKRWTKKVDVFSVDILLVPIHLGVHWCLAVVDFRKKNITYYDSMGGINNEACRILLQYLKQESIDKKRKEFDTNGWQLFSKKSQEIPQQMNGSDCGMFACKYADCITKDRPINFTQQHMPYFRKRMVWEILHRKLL
In words: SENP1 catalytic domain blockers, concentration series – biochemical, kinetic FRET, dose response (AID 651697). It is filed as functional. The following applies: read-out: IC50_Mean.

The target in assay [8] is T4, Sentrin-specific protease 1. In words: Dose response confirmation of small molecule inhibitors of the catalytic domain of the SUMO protease, SENP1 in a FRET assay. It is filed as functional. The following applies: read-out: IC50_Mean.
For assay [9], the target named is T5, Rac GTPase-activating protein 1 (Homo sapiens, UniProt Q9H0H5).
T5 sequence (Q9H0H5 whole entry): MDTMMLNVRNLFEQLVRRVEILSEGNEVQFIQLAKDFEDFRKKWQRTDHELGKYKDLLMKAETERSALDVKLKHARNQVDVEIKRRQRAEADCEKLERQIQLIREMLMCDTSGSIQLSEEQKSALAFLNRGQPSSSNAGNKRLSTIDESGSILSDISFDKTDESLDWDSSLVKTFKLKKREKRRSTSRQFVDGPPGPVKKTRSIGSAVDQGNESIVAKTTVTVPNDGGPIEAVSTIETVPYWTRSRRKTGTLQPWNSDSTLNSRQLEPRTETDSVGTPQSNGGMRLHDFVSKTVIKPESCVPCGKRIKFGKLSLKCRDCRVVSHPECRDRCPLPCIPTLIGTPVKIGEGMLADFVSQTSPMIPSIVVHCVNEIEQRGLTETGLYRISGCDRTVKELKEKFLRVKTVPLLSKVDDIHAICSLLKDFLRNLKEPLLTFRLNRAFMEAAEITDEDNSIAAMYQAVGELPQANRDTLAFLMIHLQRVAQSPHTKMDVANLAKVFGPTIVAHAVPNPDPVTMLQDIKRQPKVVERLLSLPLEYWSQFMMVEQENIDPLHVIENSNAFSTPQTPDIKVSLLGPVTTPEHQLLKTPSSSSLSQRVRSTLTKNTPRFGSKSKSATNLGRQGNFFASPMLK
In words: blockers of MgcRacGAP-driven Rac1 GTP hydrolysis – biochemical, ADP Hunter fluorescence, primary and confirmatory, confirmation (AID 624330). It is filed as functional.

A short description of assay [10]: Counterscreen for inhibitors of Trypanosoma brucei methionyl tRNA synthetase (MetRS): Luminescence-based cell-based high throughput dose response assay to identify compounds that are cytotoxic to Jurkat human T lymphocyte cells. It is filed as functional. For orientation: Counterscreens check selectivity or assay interference.
The nature of assay [11]: Luminescence Cell-Based Dose Retest to Confirm Inhibitors of Cancer Stem Cells. [Related pubchem assays (depositor defined):AID2717, AID2721]. It is filed as functional. The following applies: Homo sapiens.
A short description of assay [12]: viability loss of HMLE_sh_eGFP cells – cell-based, luminescence, counter-screen for HMLE_sh_ECad selective toxicity project, dose response (AID 463074).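 Also: HMLE human mammary epithelial cells expressing control shRNA against eGFP.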 It is filed as functional, Homo sapiens.
Assay [13] deals with T6, Methionyl-tRNA synthetase, putative (Trypanosoma brucei brucei, UniProt Q38C91).
T6 sequence (Q38C91 whole entry): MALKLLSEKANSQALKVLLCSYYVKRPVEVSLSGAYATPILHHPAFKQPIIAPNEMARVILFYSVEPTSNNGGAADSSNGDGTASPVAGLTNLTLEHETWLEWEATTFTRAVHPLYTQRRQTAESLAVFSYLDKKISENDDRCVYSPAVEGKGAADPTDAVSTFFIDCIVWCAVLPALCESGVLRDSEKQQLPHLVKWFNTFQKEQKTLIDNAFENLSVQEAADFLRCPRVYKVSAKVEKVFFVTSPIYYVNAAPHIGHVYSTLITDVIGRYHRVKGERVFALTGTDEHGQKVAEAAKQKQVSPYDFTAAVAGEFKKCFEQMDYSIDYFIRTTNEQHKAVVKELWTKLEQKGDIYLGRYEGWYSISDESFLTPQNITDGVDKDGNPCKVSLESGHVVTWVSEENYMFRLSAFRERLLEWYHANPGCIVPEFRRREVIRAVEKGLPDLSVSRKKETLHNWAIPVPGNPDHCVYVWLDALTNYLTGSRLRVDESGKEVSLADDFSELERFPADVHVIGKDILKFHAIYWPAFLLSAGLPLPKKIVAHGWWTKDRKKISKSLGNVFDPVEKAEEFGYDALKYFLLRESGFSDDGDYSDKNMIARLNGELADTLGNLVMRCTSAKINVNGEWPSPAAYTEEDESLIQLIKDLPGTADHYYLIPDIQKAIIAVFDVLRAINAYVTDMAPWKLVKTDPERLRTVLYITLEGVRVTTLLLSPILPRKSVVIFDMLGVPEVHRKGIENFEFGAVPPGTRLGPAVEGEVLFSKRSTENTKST
It is filed as functional, Trypanosoma brucei brucei strain 927/4 GUTat10.1.

Assay [14] concerns the target T6, Methionyl-tRNA synthetase, putative. It is filed as functional, Trypanosoma brucei brucei strain 927/4 GUTat10.1. This is another data set of the same source.
A further assay addresses Mu-type opioid receptor (Homo sapiens, UniProt P35372). It is filed as functional, cell-based.

Sequence of Genome polyprotein (P29990 2492-3391 limits assumed): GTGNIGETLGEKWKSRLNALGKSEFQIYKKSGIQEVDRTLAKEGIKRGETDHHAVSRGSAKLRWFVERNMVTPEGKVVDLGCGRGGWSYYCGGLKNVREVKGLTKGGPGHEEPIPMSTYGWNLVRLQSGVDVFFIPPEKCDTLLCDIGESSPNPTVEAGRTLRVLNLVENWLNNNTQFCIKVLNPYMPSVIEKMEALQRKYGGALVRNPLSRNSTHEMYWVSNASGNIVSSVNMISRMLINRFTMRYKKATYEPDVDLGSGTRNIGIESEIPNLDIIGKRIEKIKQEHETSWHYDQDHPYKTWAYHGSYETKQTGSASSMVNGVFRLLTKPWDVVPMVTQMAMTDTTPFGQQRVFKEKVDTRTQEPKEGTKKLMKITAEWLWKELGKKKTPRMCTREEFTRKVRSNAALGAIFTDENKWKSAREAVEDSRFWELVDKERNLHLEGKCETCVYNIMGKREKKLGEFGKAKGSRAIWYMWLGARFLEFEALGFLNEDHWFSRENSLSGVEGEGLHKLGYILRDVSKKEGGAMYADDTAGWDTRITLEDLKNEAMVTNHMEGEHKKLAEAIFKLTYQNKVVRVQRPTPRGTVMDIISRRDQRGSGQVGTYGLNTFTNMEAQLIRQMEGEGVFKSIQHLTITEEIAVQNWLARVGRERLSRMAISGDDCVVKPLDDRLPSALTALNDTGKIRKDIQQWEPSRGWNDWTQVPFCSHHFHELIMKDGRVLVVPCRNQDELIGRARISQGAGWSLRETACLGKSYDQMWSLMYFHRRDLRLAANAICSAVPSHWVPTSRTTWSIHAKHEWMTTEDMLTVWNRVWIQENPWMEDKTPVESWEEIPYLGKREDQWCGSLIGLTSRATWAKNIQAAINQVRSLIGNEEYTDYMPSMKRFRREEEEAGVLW
Sequence of Cytochrome P450 2D6 (P10635 whole entry): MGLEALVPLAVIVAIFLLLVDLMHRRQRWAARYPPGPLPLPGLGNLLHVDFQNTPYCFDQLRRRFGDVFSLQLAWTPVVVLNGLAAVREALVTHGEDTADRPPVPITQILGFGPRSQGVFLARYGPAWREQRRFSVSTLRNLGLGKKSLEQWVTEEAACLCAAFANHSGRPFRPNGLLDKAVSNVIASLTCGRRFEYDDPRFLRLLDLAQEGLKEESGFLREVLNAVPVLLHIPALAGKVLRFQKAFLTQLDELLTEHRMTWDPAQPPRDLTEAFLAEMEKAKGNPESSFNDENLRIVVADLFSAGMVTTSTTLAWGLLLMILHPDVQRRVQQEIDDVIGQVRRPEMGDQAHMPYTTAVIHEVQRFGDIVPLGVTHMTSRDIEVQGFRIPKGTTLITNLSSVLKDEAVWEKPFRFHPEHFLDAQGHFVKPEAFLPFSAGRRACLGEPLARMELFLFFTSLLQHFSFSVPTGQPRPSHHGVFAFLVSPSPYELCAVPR
Sequence of Mu-type opioid receptor (P35372 whole entry): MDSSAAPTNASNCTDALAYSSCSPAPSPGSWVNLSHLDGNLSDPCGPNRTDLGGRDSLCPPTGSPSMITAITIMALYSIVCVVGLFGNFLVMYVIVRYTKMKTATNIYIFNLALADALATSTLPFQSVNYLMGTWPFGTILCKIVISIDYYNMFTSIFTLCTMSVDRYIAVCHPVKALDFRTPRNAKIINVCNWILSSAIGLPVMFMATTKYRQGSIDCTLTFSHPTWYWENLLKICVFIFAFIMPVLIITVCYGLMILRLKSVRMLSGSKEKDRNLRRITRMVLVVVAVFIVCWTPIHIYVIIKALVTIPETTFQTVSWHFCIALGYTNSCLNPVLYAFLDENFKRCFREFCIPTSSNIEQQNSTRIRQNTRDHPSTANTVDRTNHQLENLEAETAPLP
Sequence of Adenosylmethionine-8-amino-7-oxononanoate aminotransferase (P9WQ81 whole entry): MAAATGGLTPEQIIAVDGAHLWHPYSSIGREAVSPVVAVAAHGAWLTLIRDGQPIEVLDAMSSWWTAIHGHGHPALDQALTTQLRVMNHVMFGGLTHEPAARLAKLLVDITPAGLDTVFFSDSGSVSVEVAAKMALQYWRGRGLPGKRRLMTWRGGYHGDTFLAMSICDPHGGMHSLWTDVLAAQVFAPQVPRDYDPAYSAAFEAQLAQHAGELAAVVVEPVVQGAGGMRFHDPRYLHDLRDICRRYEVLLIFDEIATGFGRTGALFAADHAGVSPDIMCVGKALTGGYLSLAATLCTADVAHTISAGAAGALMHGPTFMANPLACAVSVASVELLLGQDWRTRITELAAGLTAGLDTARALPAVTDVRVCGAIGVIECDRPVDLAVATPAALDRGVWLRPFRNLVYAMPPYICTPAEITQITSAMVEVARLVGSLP

`Cc1nc2nc(SCC(=O)NCc3ccco3)nn2c(C)c1Cc1c(F)cccc1Cl`: the AC50 on Cytochrome P450 1A2 was 20 µM (inconclusive); on Cytochrome P450 2D6, 28.2 µM (inconclusive); in assay [1], 1.38 µM (active).
As to `C=CCOc1ccc(/C=C2\SC(=S)N(NS(=O)(=O)c3ccccc3)C2=O)cc1`, the AC50 in assay [2] was > 100 µM (inactive). Besides, the figures for the IC50 (in assay [3]; at Genome polyprotein; in [5]) were 6.69 µM (active), 30.4 µM (active) and 3.68 µM (active), respectively. Further, in [4], the EC50 was > 53 µM (inactive).
For `CCCCN(CCCC)C(=O)CN(C)S(=O)(=O)c1ccc2c(c1)n(C)c(=O)c(=O)n2C`, the AC50 in assay [6] is 1.4 µM (active).
Turning to `COc1ccccc1NC(=O)CONC(=N)CC(=O)NC1CCCCC1`, the IC50 in assay [7] was 14.1 µM (active); in assay [8] it was 12.5 µM (active).
On to `CN(C)CCNc1cccc2sc3ccc(O)cc3c(=O)c12`, for which the IC50 in assay [7] is 37.8 µM (inactive); in [8], 26 µM (inactive).
For `CCOc1cc(/C=N/NC(=O)c2ccccc2OCc2ccc(F)cc2)ccc1O`, the IC50 was > 20 µM (inactive) in [3], 4.05 µM (active) in [5] and 78.5 µM (active) in [9]. Also, the EC50 in assay [4] is > 53 µM (inactive).
Consider `O=C(COc1ccc(Cl)cc1Cl)N/N=C/c1ccc[nH]1`, for which the IC50 is 22.2 µM (inactive) in assay [10], 22.4 µM (inactive) in assay [13] and 13.2 µM (inactive) in [14]. Moreover, the concentration at half-maximal activity (AC50) in assay [11] is 1.92 µM (active); in [12] it was 20.7 µM (active).
Turning to `CC(CCc1ccc(O)cc1)NCCc1ccc(O)c(O)c1` (stereo not drawn) [DOBUTAMINE HYDROCHLORIDE], the EC50 on Mu-type opioid receptor is 92.5 µM (inactive).

Broadly, the AC50 is the midpoint of the concentration-response curve, whichever way the signal moves.
